Reference: patent publication US10329270B2, “Heteroaryl compounds as BTK inhibitors and uses thereof” (Merck Patent GmbH, priority 2013, dated 2019)

Biological target: T1, full-length human BTK (Homo sapiens, UniProt Q06187)
T1 construct: 2.5× stocks of full-length human BTK (08-080); purchased CarnaBio USA, Inc., Natick, Mass; 08-080
Assay: Assay A: BTK IC50 Enzyme Assay (microfluidic off-chip mobility shift kinase assay)
Assay type: biochemical
Details: full-length human BTK, kinKDR peptide substrate, incubated 90 min at 27 C; read-out: Assay A (Time Dependent BTK Enzyme Assay IC50)
Protocol: Assay A: BTK IC50 Enzyme Assay
The following describes a microfluidic, off-chip mobility shift kinase assay used to measure inherent potency of compounds against BTK enzyme. Compounds described by embodiments of the present invention were assayed using this protocol and the data from the same is recorded in Table 2 within the column labeled: “Time Dependent BTK Enzyme Assay IC50”.
Stopped reactions were monitored at −2 PSI, −3000 V/−700 V in a LabChip 3000 plate reader from Caliper Life Sciences, a PerkinElmer Company (Hopkinton, Mass.), and the activity was measured by off-chip mobility shift assay measuring the charge/mass difference between substrate and product resulting from peptide phosphorilation. IC50 and efficacy were determined by plotting log [Inhibitor] vs. % Activity in GeneData Screener (Basel, Switzerland). […] I<1 uM and II>1 uM.

T1 sequence (Q06187 whole entry): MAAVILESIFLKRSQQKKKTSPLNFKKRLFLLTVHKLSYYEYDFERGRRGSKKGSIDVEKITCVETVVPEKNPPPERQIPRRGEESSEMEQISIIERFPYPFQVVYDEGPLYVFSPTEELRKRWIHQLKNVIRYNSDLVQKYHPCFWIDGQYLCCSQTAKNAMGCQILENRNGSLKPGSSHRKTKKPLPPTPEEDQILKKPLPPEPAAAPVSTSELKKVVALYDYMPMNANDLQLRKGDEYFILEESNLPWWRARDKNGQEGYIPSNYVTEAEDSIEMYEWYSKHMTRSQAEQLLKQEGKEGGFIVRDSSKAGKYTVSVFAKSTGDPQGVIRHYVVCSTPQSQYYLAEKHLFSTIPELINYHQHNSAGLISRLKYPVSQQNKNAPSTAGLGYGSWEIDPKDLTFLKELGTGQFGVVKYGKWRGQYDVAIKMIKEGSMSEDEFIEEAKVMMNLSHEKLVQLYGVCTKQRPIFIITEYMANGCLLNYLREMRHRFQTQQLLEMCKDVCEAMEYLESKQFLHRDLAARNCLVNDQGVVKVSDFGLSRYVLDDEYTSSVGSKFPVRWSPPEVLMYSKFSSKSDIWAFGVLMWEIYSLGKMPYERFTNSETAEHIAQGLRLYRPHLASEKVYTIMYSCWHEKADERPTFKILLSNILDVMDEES

Compound | IC50
C=CC(=O)N1CC2CN(c3cnc(Oc4ccc(Oc5ccccc5)cc4)c(C(N)=O)c3)CC2C1 (centres unmarked) [Compound 216, 5-(5-Acryloyl-hexahydro-pyrrolo[3,4-c]pyrrol-2-yl)-2-(4-phenoxy-phenoxy)-nicotinamide] | 100 to 1000 nM
C=CC(=O)N[C@H]1CCN(c2nc(Nc3ccc(N4CCC(F)(F)CC4)cc3)c(F)cc2C(N)=O)C1 [Compound 186, 2-((S)-3-Acryloylamino-pyrrolidin-1-yl)-6-[4-(4,4-difluoro-piperidin-1-yl)-phenylamino]-5-fluoro-nicotinamide formic acid] | 100 to 1000 nM
C=CC(=O)N1CCC(c2ccc(C(N)=O)c(Oc3ccc(Oc4ccccc4)cc3)n2)C1 (centres unmarked) [Compound 70, 6-(1-acryloylpyrrolidin-3-yl)-2-(4-phenoxyphenoxy)nicotinamide] | < 100 nM
C=CC(=O)N[C@H]1CCN(c2nc(Nc3ccc(CCN4CCCC4)cc3)c(F)cc2C(N)=O)C1 [Compound 4, 2-((S)-3-Acryloylamino-pyrrolidin-1-yl)-5-fluoro-6-[4-(2-pyrrolidin-1-yl-ethyl)-phenylamino]-nicotinamide] | 100 to 1000 nM
C=CC(=O)N1CCC(c2ncc(C(N)=O)c(Oc3ccc(Oc4ccccc4)cc3)n2)CC1 [Compound 148, 2-(1-Acryloyl-piperidin-4-yl)-4-(4-phenoxy-phenoxy)-pyrimidine-5-carboxylic acid amide] | < 100 nM
C=CC(=O)N[C@H]1CCN(c2cc(Oc3ccc(Oc4cccc(C#N)c4)cc3)c(C(N)=O)cn2)C1 [Compound 113, (S)-6-(3-acrylamidopyrrolidin-1-yl)-4-(4-(3-cyanophenoxy)phenoxy)nicotinamide] | 100 to 1000 nM
C=CC(=O)N1CCC(c2ccc(C(N)=O)c(Nc3ccc(C(=O)N4CCN(C(=O)CCCCNC(=S)Nc5ccc(C6=C7C(C)=CC(C)=[N+]7[B-](F)(F)n7c(C)cc(C)c76)cc5)CC4)cc3)n2)CC1 [Compound 63, 1′-Acryloyl-6-{4-[4-(5-{3-[4-(4,4-difluoro-1,3,5,7-tetramethyl-3a,4alambda4-diaza-4lambda4-bora-s-indacen-8-yl)-phenyl]-thioureido}-pentanoyl)-piperazine-1-carbonyl]-phenylamino}-1′,2′,3′,4′,5′,6′-hexahydro-[2,4′]bipyridinyl-5-carboxylic acid amide] | < 100 nM
C=CC(=O)N[C@H]1CCN(c2ccc(C(N)=O)c(Nc3cncc(F)c3)n2)C1 [Compound 51, 6-((S)-3-Acryloylamino-pyrrolidin-1-yl)-2-(5-fluoro-pyridin-3-ylamino)-nicotinamide] | < 100 nM
C=CC(=O)N1C[C@@H]2C[C@H]1CN2c1ccc(C(N)=O)c(Nc2cccnc2)n1 [Compound 15, 6-((1S,4S)-5-acryloyl-2,5-diazabicyclo[2.2.1]heptan-2-yl)-2-(pyridin-3-ylamino)nicotinamide] | < 100 nM
C=CC(=O)N1CCC=C(c2ccc(C(N)=O)c(Oc3ccc(Oc4ccccc4)cc3)n2)C1 [Compound 83, 1′-Acryloyl-6-(4-phenoxy-phenoxy)-1′,2′,5′,6′-tetrahydro-[2,3′]bipyridinyl-5-carboxylic acid amide] | < 100 nM
C=CC(=O)N1[C@@H]2CC[C@H]1CC(c1cnc(C(N)=O)cn1)C2 (some centres unmarked) [Compound 136] | 1000 to 5000 nM
N#CN1CCC(c2cnc(Oc3ccc(Oc4ccccc4)cc3)c(C(N)=O)c2)C1 (centres unmarked) [Compound 245, 5-(1-cyanopyrrolidin-3-yl)-2-(4-phenoxyphenoxy)pyridine-3-carboxamide] | 1000 to 5000 nM
C=CC(=O)NCc1cccc(-c2ccc(C(N)=O)c(Oc3ccc(Oc4ccccc4)cc3)n2)c1 [Compound 98, 6-(3-(acrylamidomethyl)phenyl)-2-(4-phenoxyphenoxy)nicotinamide] | 1000 to 5000 nM
C=CC(=O)N[C@H]1CCN(c2ccc(C(N)=O)c(Nc3ccc(Oc4ccnc(C(=O)NC)c4)cc3)n2)C1 [Compound 36, 6-((S)-3-Acryloylamino-pyrrolidin-1-yl)-2-[4-(2-methylcarbamoyl-pyridin-4-yloxy)-phenylamino]-nicotinamide] | < 100 nM
C=CC(=O)NCc1cccc(-c2cnc(C(N)=O)nc2)c1 [Compound 152] | 1000 to 5000 nM
C/C=C(\C#N)C(=O)N1C[C@@H]2C[C@H]1CN2c1ncc(C(N)=O)c(Oc2ccc(Oc3ccccc3)cc2)n1 [Compound 211, 2-((1S,4S)-5-((E)-2-cyanobut-2-enoyl)-2,5-diazabicyclo[2.2.1]heptan-2-yl)-4-(4-phenoxyphenoxy)pyrimidine-5-carboxamide] | 1000 to 5000 nM
C=CC(=O)N1CCCC(Nc2cnc(Oc3ccc(Oc4ccccc4)cc3)c(C(N)=O)c2)C1 (centres unmarked) [Compound 223, 5-(1-Acryloyl-piperidin-3-ylamino)-2-(4-phenoxy-phenoxy)-nicotinamide] | 100 to 1000 nM
C=CC(=O)NCc1ccc(-c2ccc(C(N)=O)c(Oc3ccc(Oc4ccccc4)cc3)n2)cc1 [Compound 89, 6-(4-(acrylamidomethyl)phenyl)-2-(4-phenoxyphenoxy)nicotinamide] | 100 to 1000 nM
C=CC(=O)NC1CCC(c2cnc(C(N)=O)c(NC(C)=O)c2)CC1 (centres unmarked) [Compound 133] | 1000 to 5000 nM
C=CC(=O)N1C[C@@H]2CCN(c3ncc(C(N)=O)c(Oc4ccc(Oc5ccccc5)cc4)n3)[C@@H]2C1 [Compound 203, 2-((3aS,6aS)-5-acryloylhexahydropyrrolo[3,4-b]pyrrol-1(2H)-yl)-4-(4-phenoxyphenoxy)pyrimidine-5-carboxamide] | 100 to 1000 nM
C=CC(=O)N1C2CC1CN(c1ncc(C(N)=O)c(Oc3ccc(Oc4ccccc4)cc3)n1)C2 [Compound 193, 2-(6-acryloyl-3,6-diazabicyclo[3.1.1]heptan-3-yl)-4-(4-phenoxyphenoxy)pyrimidine-5-carboxamide] | 100 to 1000 nM
C=CC(=O)NC1CCCN(c2cnc(Oc3ccc(Oc4cccc(F)c4)cc3)c(C(N)=O)c2)C1 (centres unmarked) [Compound 220, 3-Acryloylamino-6′-[4-(3-fluoro-phenoxy)-phenoxy]-3,4,5,6-tetrahydro-2H-[1,3′]bipyridinyl-5′-carboxylic acid amide] | 1000 to 5000 nM
C=CC(=O)N[C@H]1CCN(c2ccc(C(N)=O)c(Oc3ccc(OCc4ccccc4)cc3)n2)C1 [Compound 90, (S)-6-(3-acrylamidopyrrolidin-1-yl)-2-(4-(benzyloxy)phenoxy)nicotinamide] | 100 to 1000 nM

Now from value to molecule:

IC50 | Compound
100 to 1000 nM | C=CC(=O)N[C@H]1CCN(c2ccc(C(N)=O)c(Nc3ccc(NC(=O)C(C)(C)C)cc3)n2)C1 [Compound 59, 6-((S)-3-Acryloylamino-pyrrolidin-1-yl)-2-[4-(2,2-dimethyl-propionylamino)-phenylamino]-nicotinamide]
1000 to 5000 nM | N#CN1CCC(Nc2cnc(Oc3ccc(Oc4ccc(F)cc4F)cc3)c(C(N)=O)c2)C1 (centres unmarked) [Compound 250, 5-[(1-cyanopyrrolidin-3-yl)amino]-2-[4-(2,4-difluorophenoxy)phenoxy]pyridine-3-carboxamide]
1000 to 5000 nM | N#CN1CCC(c2cnc(Oc3ccc(Oc4ccccc4)cc3)c(C(N)=O)c2)CC1 [Compound 244, 5-(1-cyanopiperidin-4-yl)-2-(4-phenoxyphenoxy)pyridine-3-carboxamide]
< 100 nM | C=CC(=O)N1CCCC(c2ccc(C(N)=O)c(Nc3ccc(CCN4CCCC4)cc3)n2)C1 (centres unmarked) [Compound 42, 1′-Acryloyl-6-[4-(2-pyrrolidin-1-yl-ethyl)-phenylamino]-1′,2′,3′,4′,5′,6′-hexahydro-[2,3′]bipyridinyl-5-carboxylic acid amide]
1000 to 5000 nM | C=CC(=O)N[C@H]1CCN(c2nc(Nc3ccc(N4C[C@@H](C)O[C@@H](C)C4)nc3)c(C(N)=O)cc2F)C1 [Compound 6, 6-((S)-3-Acryloylamino-pyrrolidin-1-yl)-2-[6-(cis-2,6-dimethyl-morpholin-4-yl)-pyridin-3-ylamino]-5-fluoro-nicotinamide]
100 to 1000 nM | C=CC(=O)N1CCN(c2ccc(C(N)=O)c(N(C)c3cccc(C)c3)n2)CC1 [Compound 58, 6-(4-Acryloyl-piperazin-1-yl)-2-(methyl-m-tolyl-amino)-nicotinamide]
< 100 nM | C=CC(=O)N1CCC(Nc2cnc(Oc3ccc(Oc4ccccc4)cc3)c(C(N)=O)c2)CC1 [Compound 252, 5-(1-Acryloyl-piperidin-4-ylamino)-2-(4-phenoxy-phenoxy)-nicotinamide]
< 100 nM | C=CC(=O)N[C@H]1CCN(c2ccc(C(N)=O)c(Nc3cccnc3)n2)C1 [Compound 52, 6-((S)-3-Acryloylamino-pyrrolidin-1-yl)-2-(pyridin-3-ylamino)-nicotinamide]
100 to 1000 nM | C=CC(=O)N[C@H]1CCN(c2ccc(C(N)=O)c(Nc3ccc(F)c(C)c3)n2)C1 [Compound 60, 6-((S)-3-Acryloylamino-pyrrolidin-1-yl)-2-(4-fluoro-3-methyl-phenylamino)-nicotinamide]
100 to 1000 nM | C=CC(=O)N1CC2CN(c3cnc(Oc4ccc(Oc5cccc(F)c5)cc4)c(C(N)=O)c3)CC2C1 (centres unmarked) [Compound 238, 5-(5-Acryloyl-hexahydro-pyrrolo[3,4-c]pyrrol-2-yl)-2-[4-(3-fluoro-phenoxy)-phenoxy]-nicotinamide]
< 100 nM | C=CC(=O)N1C[C@@H]2C[C@H]1CN2c1ncc(C(N)=O)c(Oc2ccc(Oc3ccccc3)cc2)n1 [Compound 147, 2-((1S,4S)-5-acryloyl-2,5-diazabicyclo[2.2.1]heptan-2-yl)-4-(4-phenoxyphenoxy)pyrimidine-5-carboxamide]
100 to 1000 nM | C=CC(=O)N[C@H]1C[C@H](Nc2ncc(C(N)=O)c(Oc3ccc(Oc4ccccc4)cc3)n2)C1 [Compound 176, 2-(((1r,3r)-3-acrylamidocyclobutyl)amino)-4-(4-phenoxyphenoxy)pyrimidine-5-carboxamide]
